Laboratory results from article PMC6753678, “Fueling Open Innovation for Malaria Transmission-Blocking Drugs: Hundreds of Molecules Targeting Early Parasite Mosquito Stages” (Frontiers in Microbiology, 2019).

What was measured:
[1] = tested on: P. falciparum female gametocytes; assay: P. falciparum female gametogenesis assay (Pf FGAA); details: 1: YES; 0: NO; >10-fold selectivity over cytotox
[2] = tested on: P. falciparum female gametocytes; parameters: method as in Miguel-Blanco et al 2017; details: ref Miguel-Blanco et al 2017; read-out: Pf FGAA IC50; cited from earlier work
HepG2 cells = assay: HepG2 cytotoxicity assay; details: unified HepG2 cytotoxicity across the three screens
Procedure, shortened: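 Percent inhibition derived from fluorescent viability readout, normalised to DMSO (negative) and 50 μM doxorubicin (positive). Compound incubation lasted 48 h at 37°C, 5% CO2, with 2,500 HepG2 cells/well in MEM plus 10% FBS and 1% NEAA.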

SMILES | Is compound selective in assay? Pf FGAA active? [1] | IC50 [2] [nM] | Unified cytotox (HepG2 cells) [µM]
COC(=O)c1ccc(-c2ccc(-c3cccnc3)cc2C)cc1 [TCMDC-139074] | 0 (0: NO) | 590 | 3.63
Cc1c(N=O)cc(C(C)(C)C)c(O)c1C(=O)Nc1ccc([N+](=O)[O-])cc1Cl [TCMDC-142233] | 0 (0: NO) | 1170 | 1.78
CC(=O)Nc1ccc2[nH]cc(C3CCN(CC4CCN(C(=O)/C=C/c5ccc(Cl)c(Cl)c5)CC4)CC3)c2n1 [TCMDC-140112] | 0 (0: NO) | 1380 | 12.59
CCn1c2ccccc2c2cc(C=NN=c3cc(C)[nH]c4ccccc34)ccc21 [TCMDC-142186] | 0 (0: NO) | 4150 | 5.82
CC(C)(CNC(=O)[C@@H]1CCCCN1)c1nc(-c2ccc(Cl)c(O)c2)c(-c2ccncc2)[nH]1.Cl [TCMDC-141079] | 1 (1: YES) | 1580 | 38.91
COc1ccc(NC(=O)c2cccc(Br)c2)cc1N1CCN(CCCCCCCN2CCN(c3cc(NC(=O)c4cccc(Br)c4)ccc3OC)CC2)CC1.Cl [TCMDC-139020] | 0 (0: NO) | 1060 | 6.03
CCCCCCCN1CC[C@@H](CCCc2ccnc3ccc(OC)cc23)[C@@H](CNC)C1.O=C(O)C(=O)O [TCMDC-139875] | 0 (0: NO) | 730 | 5.89
CN1CCCC1CCNc1ncc2c(-c3ccc(NC(=O)Nc4cc(C(F)(F)F)ccc4F)c(F)c3)nn(C)c2n1.O=C(O)C(F)(F)F (stereo not drawn) [TCMDC-141610] | 0 (0: NO) | 1470 | 4.62
COc1cc2nc(N3CCC(CNC(=O)c4ccc(-c5ccc(C(F)(F)F)cc5)cc4)CC3)nc(N)c2cc1OC [TCMDC-138716] | 0 (0: NO) | 850 | 4.92
COc1ccc2nc(N=C3NC4(c5ccccc5)NC(=Nc5nc6ccc(OC)cc6[nH]5)NC4(c4ccccc4)N3)[nH]c2c1.O=C(O)C(F)(F)F (stereo not drawn) [TCMDC-139632] | 1 (1: YES) | 120 | 62.72
CN1CCN(c2cc3c(cc2Cl)CCN3C(=O)Nc2ccc(NC(=O)c3ccc(C(F)(F)F)cc3)cc2)CC1.Cl [TCMDC-139270] | 0 (0: NO) | 690 | 3.99
CCN1CCC2(c3cccc(OC)c3)Cc3nc4ccccc4c(-c4ccccc4)c3CC2C1 (stereo not drawn) [TCMDC-138968] | 1 (1: YES) | 1430 | 33.25
CC(C)(CNC(=O)[C@H]1CCCN1)c1nc(-c2ccc(Cl)c(O)c2)c(-c2ccncc2)[nH]1.Cl [TCMDC-141060] | 1 (1: YES) | 1210 | 32.74
CCN(CC)CCN(Cc1ccc(-c2ccc(Cl)cc2)cc1)C(=O)Cn1cc(CN(C)C)c(=O)nc1SCc1ccc(F)cc1 [TCMDC-140406] | 0 (0: NO) | 1380 | 6.61
CN(C)CCCNCc1ccc(-c2ccc(C(F)(F)F)cc2)cc1 [TCMDC-140011] | 0 (0: NO) | 1680 | 4.90
COc1cc2nc(N3CCC(CNC(=O)c4ccc(-c5ccc(Cl)cc5)cc4)CC3)nc(N)c2cc1OC [TCMDC-138718] | 0 (0: NO) | 890 | 4.22
CN1CCN(CCCNCc2ccccc2-c2cccc(CNCc3ccc4c(c3)OCO4)c2)CC1.O=C(O)C(F)(F)F [TCMDC-140476] | 0 (0: NO) | 1640 | 1.51
O=C(NC1CCN(CCN2CCC(c3c[nH]c4ccccc34)CC2)CC1)c1ccc(-c2ccc(C(F)(F)F)cc2)cc1 [TCMDC-138845] | 0 (0: NO) | 1800 | 4.68
CCN(CC)CCN(Cc1ccc(-c2ccc(C(F)(F)F)cc2)cc1)C(=O)Cn1cc(Cc2cnn(C)c2)c(=O)nc1/C=C/c1ccc(F)cc1.O=C(O)C(O)C(O)C(=O)O [TCMDC-140741] | 1 (1: YES) | 1210 | 13.81
Clc1cccc(C23N=C(Nc4nc5ccccc5[nH]4)NC2(c2ccccc2)NC(Nc2nc4ccccc4[nH]2)=N3)c1 (stereo not drawn) [TCMDC-139089] | 1 (1: YES) | 150 | 42.76
O=C(NCC1CCN(CCN2CCC(c3cn(CCO)c4ccccc34)CC2)CC1)c1ccc(-c2ccc(C(F)(F)F)cc2)cc1 [TCMDC-138856] | 0 (0: NO) | 1470 | 2.69

SMILES | Is compound selective in assay? Pf FGAA active? [1] | IC50 [2] [nM] | Unified cytotox (HepG2 cells) [µM]
CNCC(C)(C)c1nc(-c2ccc(Cl)c(O)c2)c(-c2ccncc2)[nH]1.Cl [TCMDC-140762] | 1 (1: YES) | 880 | 13.52
Cc1c(Cn2nc(Cl)c(N3CCNCC3)cc2=O)cccc1NC(=O)Nc1ccc(-c2ccccc2)cc1.O=C(O)C(F)(F)F [TCMDC-141699] | 0 (0: NO) | 4910 | 4.22
CN1CCc2cc(NS(=O)(=O)c3ccc(-c4ccc(Cl)cc4)cc3)c(OCCCN3CCCCC3)cc2CC1.Cl [TCMDC-141754] | 0 (0: NO) | 970 | 2.23
CC(Cc1ccc(NC(=O)c2ccc(CNCCc3ccccc3)cc2)cc1)NCCc1cccc(Cl)c1.Cl (stereo not drawn) [TCMDC-139867] | 0 (0: NO) | 2070 | 4.17
COc1ccc(NC(=O)c2ccc(OCCCCCCCOc3ccc(C(=O)Nc4ccc(OC)c(N5CCN(C)CC5)c4)cc3)cc2)cc1N1CCN(C)CC1.O=C(O)C(=O)O [TCMDC-139007] | 0 (0: NO) | 1410 | 4.43
CC(NCCc1cccc(Cl)c1)C(O)c1ccc(OCCCCCCOc2ccc(C(O)C(C)NCCc3cccc(Cl)c3)cc2)cc1 (stereo not drawn) [TCMDC-139334] | 0 (0: NO) | 1000 | 2.63
Cc1ccc(Cn2nc(Cl)c(N3CCNCC3)cc2=O)cc1NC(=O)Nc1ccc(-c2ccccc2)cc1.O=C(O)C(F)(F)F [TCMDC-141698] | 1 (1: YES) | 440 | 4.79
Cl.OC(CNCCCCCCNCC(O)c1ccc(Cl)c(Cl)c1)c1ccc(Cl)c(Cl)c1 (stereo not drawn) [TCMDC-141987] | 0 (0: NO) | 900 | 4.27
CCOc1ccc2c(=NN=Cc3cc(OC)c(OC)cc3OC)cc(C)[nH]c2c1 [TCMDC-142207] | 0 (0: NO) | 1220 | 12.17
O=C(NCCCCN1CCC(c2ccc3c(c2OCCN2CCCC2)CCCC3)CC1)c1ccc(-c2ccc(C(F)(F)F)cc2)cc1 [TCMDC-138768] | 0 (0: NO) | 1980 | 5.39
Cc1cc2nc(N=C3NC4(c5ccccn5)NC(=Nc5nc6cc(C)c(C)cc6[nH]5)NC4(c4ccccn4)N3)[nH]c2cc1C.O=C(O)C(F)(F)F (stereo not drawn) [TCMDC-139105] | 0 (0: NO) | 5340 | 35.91
CC(C)(C)c1ccc(CNC(=O)c2cc(CNC3CCNCC3)ccc2O)cc1 [TCMDC-140775] | 0 (0: NO) | 2000 | 13.96
Cl.Nc1c2c(nc3ccc(NC(=O)CCCCCCc4ccccc4)cc13)CCCC2 [TCMDC-139056] | 0 (0: NO) | 2380 | 5.42
CN(C)CCN1CCN(CCCN2c3ccccc3Sc3ccc(C(F)(F)F)cc32)CC1.Cl [TCMDC-142257] | 1 (1: YES) | 5250 | 77.62
CC(C)(C)c1ccc(CNC(=O)c2ccc(CNC3CCC(N)CC3)s2)cc1 (stereo not drawn) [TCMDC-140777] | 0 (0: NO) | 2440 | 8.95
CN1CCN(CCCNc2ncc3c(-c4ccc(NC(=O)Nc5cc(C(F)(F)F)ccc5F)c(F)c4)nn(C)c3n2)CC1.O=C(O)C(F)(F)F [TCMDC-141611] | 0 (0: NO) | 870 | 4.90
O=C(/C=C/c1ccc(Cl)c(Cl)c1)N1CCC(CN2CCC(c3c[nH]c4ccncc34)CC2)CC1 [TCMDC-140074] | 0 (0: NO) | 870 | 5.32
CN1CCC=C(C(=O)NCC(C)(C)c2nc(-c3ccc(Cl)c(O)c3)c(-c3ccncc3)[nH]2)C1.Cl [TCMDC-140700] | 0 (0: NO) | 1910 | 13.36
CC(C)Cn1cc(C2CCN(CCN3CCC(CNC(=O)c4ccc(-c5ccc(C#N)cc5)cc4)CC3)CC2)c2ccccc21 [TCMDC-138849] | 0 (0: NO) | 1030 | 4.79
Nc1ccc2[nH]cc(C3CCN(CC4CCC(NC(=O)/C=C/c5ccc(Cl)c(Cl)c5)CC4)CC3)c2n1 (stereo not drawn) [TCMDC-140064] | 1 (1: YES) | 690 | 12.59
COc1cc2nc(-c3ccc(Br)cc3)cc(N)c2cc1OC [TCMDC-138933] | 0 (0: NO) | 760 | 4.95
